Data set [1] deals with T1, BChE (horse-serum, E.C. 3.1.1.8) (Equus caballus, UniProt P81908).
T1 construct: Sigma, St. Louis, MO, USA, horse-serum, E.C; 3.1.1.8; purchased Sigma; host or cells: horse serum
Briefly: biochemical. How it is done: The inhibitory activity of BChE was evaluated using 96-well plates on a microplate reader (Varioskan LUX, Thermo Fisher, Waltham, MA, USA) based on a modified Ellman method. Briefly, 25 μL of BChE solution (0.2 U·mL^−1, Sigma, St. Louis, MO, USA, horse-serum, E.C. 3.1.1.8) was combined with 65 μL of phosphate buffer (PBS, 0.1 M, pH 8.0), 125 μL of 5,5′-dithio-bis(2-nitrobenzoic acid) (DTNB, 3 mM), and 10 μL of a test compound at varying concentrations. Small molecules (50 mM, Topscience) were initially dissolved in dimethyl sulfoxide (DMSO) and subsequently diluted to desired concentrations using PBS. The reaction mixture was preincubated at 37 °C for 20 min. Following this, 25 μL of butyrylthiocholine iodide (BTC, 15 mM) was added, and the absorbance was measured at 412 nm in 30-s intervals for 3 min.

For data set [2], the system named is PC12 cells. Briefly: in vitro. As to conditions: PC-12 cells. How it is done: (§1) Well-differentiated rat adrenal pheochromocytoma cells (PC12) and the corresponding culture medium (WHAA24F163) were obtained from Procell Life Technology Co., Ltd. (Wuhan, China). The culture medium was supplemented with 10% fetal bovine serum (FBS, 164210-50) and 1% antibiotics (a penicillin–streptomycin mixture). PC12 cells were seeded into sterile 96-well plates at a density of 7000 cells per well (100 μL) and incubated for 24 h in a humidified incubator at 37 °C with 5% CO2. Subsequently, the cells were treated with varying concentrations of the test compounds (10, 20, and 50 μM in 100 μL) and cultured for an additional 24 h. Cell viability was assessed using the 3-(4,5-dimethylthiazol-2-yl)-2,5-diphenyltetrazolium bromide (MTT) assay (Xavier, Wuhan, China), following protocols described in a prior study.

In data set [3] the test system is PC12 cells. Briefly: Neuroprotection in H2O2-induced injury model, MTT assay. It counts as cell-based. As to conditions: for neuroprotective activity: 5 to 50 μM; for viability at 50 µM: Rattus norvegicus, PC-12, read-out: cell viability. As to the method:
To assess the neuroprotective potential of the compounds, an H2O2-induced injury model in PC12 cells was established. PC12 cells were seeded into 96-well plates and incubated for 24 h, as described previously. […].
(In general: Tetrazolium dyes change colour on reduction, which living cells bring about.)

Data set [4] concerns the target T2, BChE (Equus caballus, UniProt P81908). Briefly: Fluorescence quenching experiment (Stern-Volmer, Van't Hoff analysis). It counts as binding. As to conditions: for quenching rate constant (Kq): τ0 10^−8 s; for Kd: Ka (binding constant); for ∆H / ∆S: Van't Hoff, 298-310 K, regarded as a constant. How it is done: Then, the Stern–Volmer Equation (1) was applied to analyze their quenching mechanisms.
Their binding constants (Ka) and binding sites (n) (Table 4) with BChE were calculated using the double logarithmic Equation (2) (Figure 5G,H).
Thermodynamic parameter analysis offers valuable insights into the predominant interaction forces governing the binding process between ligand and protein, which may encompass hydrogen bonding, electrostatic interactions, hydrophobic effects, van der Waals forces, and π-effects. By applying the Van’t Hoff Equation (3) and the Gibbs–Helmholtz Equation (4), the thermodynamic parameters—including change (ΔS), enthalpy change (ΔH), and Gibbs free energy change (ΔG)—for the interactions of piboserod and Rotigotine at various temperatures.
Fluorescence quenching experiment. The fluorescence intensity of the inhibitor–BChE complex was measured using a microplate reader with an all-black 96-well plate at three different temperatures (298, 304, and 310 K). The excitation wavelength was set to 280 nm, and the emission spectrum was scanned over the range of 320–460 nm with a slit width of 5 nm. The BChE concentration was maintained constant at 5 U·mL^−1, while the compound concentration was varied in a gradient (0 to 50 μM). After mixing the compound and BChE, the samples were incubated at the designated temperature for 30 min prior to measurement. A PBS solution was used as a blank to account for background fluorescence and ensure accurate correction of the fluorescence intensity measurements.

For data set [5], the target named is T2, BChE. Briefly: BChE enzyme kinetic study (Lineweaver-Burk). Also noted: Sigma, St. Louis, MO, USA, horse-serum, E.C; 3.1.1.8; purchased Sigma; host or cells: horse serum. In kind it is biochemical. As to conditions: for inhibition type: Lineweaver-Burk plots; for reversibility of inhibition: plots of v vs [BChE] at different inhibitor concentrations. As to the method: Kinetic studies were performed to clarify the inhibition mechanism of piboserod and Rotigotine. Figure 4A,B illustrates the relationship between BChE concentration ([BChE]) and catalytic rate (v) at different inhibitor concentrations ([I]). […] Lineweaver–Burk plots were used to characterize their inhibition types. […]. The inhibition constant (Ki) values were calculated based on Lineweaver–Burk secondary plots (Figure 4C,D). […]. […].
Kinetic studies were conducted to measure reaction rates using the same methodology as in the enzyme inhibition experiments. […]. The relationship between reaction rates and enzyme concentrations was used to assess whether the inhibition was reversible. Additionally, reaction rates (v, △OD417 ·min^−1) were measured at a constant BChE concentration (0.2 U·mL^−1) while varying substrate concentrations (0.05, 0.1, 0.2, 0.4, 0.8 mM). A double-reciprocal Lineweaver–Burk plot of reaction rate versus substrate concentration was generated to elucidate the inhibition type based on the intersection points of the curves. Common inhibition types were identified as follows: competitive (intersects on the Y-axis), non-competitive (intersects on the X-axis), uncompetitive (parallel lines), and mixed (intersects in the second or third quadrant). […]

A further data set can be described thus: in vitro. As to conditions: rat. As to the method:
as §1

The mark [6] stands for this setting: PC-12 cells, hydrogen peroxide injury.

Entries after “also recorded” stand apart in the source; their conditions may differ. Where two headings read alike, the source gives them in different places.

T1 sequence (P81908 whole entry): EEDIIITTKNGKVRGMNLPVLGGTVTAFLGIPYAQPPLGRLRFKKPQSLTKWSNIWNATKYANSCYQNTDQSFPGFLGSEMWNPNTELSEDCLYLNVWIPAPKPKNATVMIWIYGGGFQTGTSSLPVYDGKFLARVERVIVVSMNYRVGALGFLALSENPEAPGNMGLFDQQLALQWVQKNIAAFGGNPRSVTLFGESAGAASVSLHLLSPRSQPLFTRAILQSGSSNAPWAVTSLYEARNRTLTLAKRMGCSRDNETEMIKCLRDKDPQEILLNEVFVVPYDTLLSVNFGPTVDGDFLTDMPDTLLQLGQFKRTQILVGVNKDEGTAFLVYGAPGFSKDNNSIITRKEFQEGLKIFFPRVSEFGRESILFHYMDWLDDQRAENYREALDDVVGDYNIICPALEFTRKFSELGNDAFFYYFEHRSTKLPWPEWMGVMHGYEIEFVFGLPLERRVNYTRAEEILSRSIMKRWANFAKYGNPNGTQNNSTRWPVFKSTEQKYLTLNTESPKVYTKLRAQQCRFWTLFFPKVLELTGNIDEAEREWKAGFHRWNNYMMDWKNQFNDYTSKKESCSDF
T2 sequence (P81908 whole entry): as above

For orientation: IC50 means the point on the concentration scale where inhibition reaches its midpoint. `CN1C[C@H](CNC(=O)OCc2ccccc2)C[C@@H]2c3cccc4c3c(cn4C)C[C@H]21` [Metergoline] registered an IC50 in data set [1] of 18.4 ± 3.29 µM. In addition, in the data set with PC12 cells [2] (lowest concentration (10 μM)), the neurotoxicity result is reported as “no neurotoxicity”. The cytotoxicity result in the data set with PC12 cells [2] (maximum concentration) is recorded as “higher cytotoxicity than that of Tacrine”. In addition, the neuroprotective effect entry in the data set on PC12 cells [3] (PC-12 cells, hydrogen peroxide injury, low concentrations (5–10 μM)) is “modest neuroprotective effects”.

Consider `COc1cc2c(NC3CCN(C)CC3)nc(N3CCCN(C)CC3)nc2cc1OCc1ccccc1` [TM2-115], for which the IC50 in data set [1] (read-out: IC50) is roughly 50 µM.

In general, Kd refers to a measure of binding affinity in units of concentration. Read a low Kd as a tighter complex. For orientation: viability means a per cent measure of how many cells are alive, often set against a control. As a reminder, the Ki is a measure of affinity in units of concentration, obtained from inhibition or displacement. Take `CCCCN1CCC(CNC(=O)c2c3n(c4ccccc24)CCCO3)CC1` [piboserod]: on BChE [4] (298 K), the Ksv came out at 5250 L/mol, the “n (binding sites)” value came out at 1.052, the “∆G” value was -5.373 kcal/mol and the “quenching rate constant (Kq)” value was found to be 5.25e+11 M⁻¹ s⁻¹. This compound also had a Kd on BChE [4] (298 K) of 11.6 µM. Moreover, on BChE [4] (304 K), the Ksv was 4720 L/mol, the “n (binding sites)” value turned out to be 1.035, the “∆G” value was -5.308 kcal/mol and binding was put at a Kd of 14.9 µM. Moreover, on BChE [4] (310 K), the Ksv worked out at 4250 L/mol; the “n (binding sites)” value came to 1.014; the “∆G” value was -5.244 kcal/mol; the affinity, expressed as Kd, was 20.4 µM. At BChE [4], the “∆H” value is -8.549 kcal/mol and the “∆S” value is recorded as −44.61 J·mol^−1·K^−1. Besides, the IC50 in data set [1] worked out at 15.3 ± 3.84 µM. In the data set with PC12 cells [3] (setting [6]), the neuroprotective activity entry is given as “significant neuroprotective activities”. The viability at 50 µM in the data set on PC12 cells [3] was found to be 66%. Moreover, on BChE [5], the Ki was found to be 10.7 µM, the inhibition type entry is given as “mixed inhibitor; also recorded: mixed-type inhibition” and the reversibility of inhibition result was “reversibly inhibit BChE”. On BChE [5] (Lineweaver-Burk secondary plots), the “α value (ratio of non-competitive to competitive inhibition constants)” value is 3.01.

`CCCN(CCc1cccs1)[C@H]1CCc2c(O)cccc2C1` [Rotigotine]: at BChE [4] (298 K), the Ksv stood at 2640 L/mol, the “n (binding sites)” value stood at 1.066, the “∆G” value is -5.067 kcal/mol and the “quenching rate constant (Kq)” value was 2.64e+11 M⁻¹ s⁻¹. At BChE [4] (298 K), this compound showed a Kd of 19.7 µM. Besides, on BChE [4] (304 K), the Ksv came out at 2250 L/mol, the “n (binding sites)” value is on record as 1.022, the “∆G” value is -4.787 kcal/mol and binding was characterised by a dissociation constant (Kd) of 34.5 µM. For the same compound, on BChE [4] (310 K), the Ksv was 1540 L/mol, the “n (binding sites)” value amounted to 0.975 and the Kd was 68.1 µM. In addition, on BChE [4], the “∆H” value is -18.98 kcal/mol and the “∆S” value is −195.34 J·mol^−1·K^−1. The midpoint of inhibition in data set [1], the IC50, lay at 12.8 ± 4.22 µM. The neuroprotective activity result in the data set with PC12 cells [3] (setting [6]) is recorded as “significant neuroprotective activities”. Further, the viability at 50 µM in the data set on PC12 cells [3] turned out to be 70%. Further, on BChE [5], the affinity corresponds to a Ki of 6.76 µM, the inhibition type result was “non-competitive inhibitor; also recorded: non-competitive inhibition” and the reversibility of inhibition result is reported as “reversibly inhibit BChE”.

In “in vitro”, `Nc1c2c(nc3ccccc13)CCCC2` [Tacrine] yielded a viability at 50 µM of 65%.

For the origin of these results see paper PMC12113681, “Discovery, Biological Evaluation and Binding Mode Investigation of Novel Butyrylcholinesterase Inhibitors Through Hybrid Virtual Screening” (Molecules, 2025).
